Measured values published in article PMC9549944, “In vitro and in silico assessment of new beta amino ketones with antiplasmodial activity” (Revista da Sociedade Brasileira de Medicina Tropical, 2022).
Like-named read-outs stand apart in the source and are kept apart here.

Test system: P. falciparum strain W2 (chloroquine-resistant)
Experiment: In vitro antiplasmodial activity, SYBR Green-based assay
Type: cell-based
Settings: for SI (selectivity index): ratio LD50 (WI-26VA4) / IC50 (P. falciparum W2)
Protocol: Ring-stage parasites were equally distributed in 96-well microculture plates. Serial dilutions of the compounds were performed ranging from 0.01 to 100 μg/mL. […] A fluorometer (Fluoroskan Ascent, Thermo Laboratories) with excitation at 485 nm and emission at […] was used to determine the viability of the parasites. All experiments were performed in triplicates.
Selectivity index (SI) is the ratio between the values of LD50 and IC50 […] of each compound tested.
IC50 and LD50 were determined using the equation of the curve obtained by plotting parasitemia reduction (%) or cellular death (%) vs. the concentration of the compound (log scale) using the GraphPad Prism software (version 5.0 for Windows, San Diego, California, USA). Due to the non-normality of the data distribution, the comparison of IC50 and LD50 between morpholine and piperidine was analyzed using the nonparametric Mann-Whitney U test. Statistical significance was defined at 5% (p<0.05).

[1] = Plasmodium falciparum, W2, read-out: IC50 ± SD (drug concentration that reduced parasite viability in 50%), P. falciparum W2 chloroquine-resistant, SYBR, mean and SD of triplicate experiments
[2] = read-out: IC50 ± SD (drug concentration that reduced parasite viability in 50%), P. falciparum W2 chloroquine-resistant, SYBR, mean and SD of triplicate experiments

SMILES	IC50 (Plasmodium falciparum, W2, read-out: IC50 ± SD (drug concentration that reduced parasite viability in 50%)) [nM]	IC50 [1] [nM]	IC50 [2] [nM]	SI (selectivity index)
CCN(CC)CCCC(C)Nc1ccnc2cc(Cl)ccc12 (stereo not drawn) [Chloroquine (CQ), Chloroquine, reference compound]	920 ± 10	–	–	–
O=C(CCN1CCOCC1)c1ccccc1 [Compound 1, 3-(morpholin-4-yl)-1-phenylpropan-1-one]	–	< 980	980 ± 10	–
O=C(CCN1CCCCC1)c1ccccc1 [Compound 2, 1-phenyl-3-(piperidin-1-yl)propan-1-one]	–	< 3590	3590 ± 80	9.46
CC(CN1CCOCC1)C(=O)c1ccccc1 (stereo not drawn) [Compound 3, 2-methyl-3-(morpholin-4-yl)-1-phenylpropan-1-one]	–	32530 ± 20	–	> 3.07
CC(CN1CCCCC1)C(=O)c1ccccc1 (stereo not drawn) [Compound 4, 2-methyl-1-phenyl-3-(piperidein-1-yl)propan-1-one]	–	> 1000	780 ± 90	–
CCCCCCC(CN1CCCCC1)C(C)=O (stereo not drawn) [Compound 8, 3[(piperdin-1-yl)methyl]nonan-2-one]	–	48000 ± 18500	–	0.81
